The text below walks through data of ChEMBL document CHEMBL1201862, “PubChem BioAssay data set” (2004).

Some test systems named below: KM12; OVCAR-8; PC-3; SN12C; CAKI-1; SK-MEL-28; SF-539; TK-10; M14; NCI-H460; SNB-19; RXF 393; T47D; SR; SNB-75; MDA-MB-231; HCT-15; UO-31; SK-MEL-2; LOX IMVI.
Assay in all cases: NCI anticancer screen, dose series, 48 h

Molecules are shown by their SMILES.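 Interpolation was linear, between the two tested concentrations surrounding the appropriate level; five concentrations were tested over 48 hours in 96-well plates. At the GI50, growth is halved.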 The source made the active and inactive calls. Rule as the data show it: active = GI50 up to about 1.1 µM and inactive = higher. Bounds are passed on as bounds.

Regarding `CCN(CC)CCNc1ccc2ncn3c4c(OC)cccc4c(=O)c1c23`, the GI50 with KM12 was 4.26 µM (inactive); in the assay on OVCAR-8, 6.38 µM (inactive); in the assay on PC-3, 3.97 µM (inactive); in the assay with SN12C, 2.93 µM (inactive); in the assay with CAKI-1, 4.89 µM (inactive); in the assay with SK-MEL-28 it was 6.47 µM (inactive). The GI50 with SF-539 is 3.78 µM (inactive); with TK-10, 12.2 µM (inactive); in the assay on M14 it was 6.34 µM (inactive); in the assay on NCI-H460 it was 3 µM (inactive); with SNB-19, 6.15 µM (inactive); in the assay on RXF 393 it was 2.45 µM (inactive). Besides, the GI50 in the assay with T47D was 7.66 µM (inactive); in the assay on SR, 3.4 µM (inactive); in the assay with SNB-75, 11.3 µM (inactive); in the assay with MDA-MB-231 it was 7.55 µM (inactive); in the assay on HCT-15, 3.85 µM; in the assay on UO-31, 4.38 µM (inactive).
Turning to `CC(C)C(=O)C(C)(C)CCc1ccccn1`, the GI50 in the assay on KM12, with OVCAR-8, in the assay on PC-3, in the assay on SN12C, in the assay on CAKI-1 and in the assay with SK-MEL-28 was > 100 µM (inactive) in each case. For the same compound, the GI50 in the assay with TK-10, in the assay on M14, with NCI-H460, in the assay on SNB-19, in the assay on RXF 393 and in the assay on T47D was > 100 µM (inactive) each time. In addition, the GI50 is > 100 µM (inactive) with SR; > 100 µM (inactive) in the assay on SK-MEL-2; > 100 µM (inactive) in the assay on SNB-75; > 100 µM (inactive) in the assay on MDA-MB-231; more than 100 µM with HCT-15; > 100 µM (inactive) in the assay with LOX IMVI. Moreover, the GI50 in the assay with UO-31 is > 100 µM (inactive).
In the case of `c1ccc([P+](Cc2ccc(C[P+](c3ccccc3)(c3ccccc3)c3ccccc3)cc2)(c2ccccc2)c2ccccc2)cc1`, the GI50 was 41.8 µM (inactive) in the assay on KM12; 45.8 µM (inactive) in the assay with OVCAR-8; 40.9 µM (inactive) in the assay with PC-3; 67.5 µM (inactive) with SN12C; > 100 µM (inactive) in the assay with CAKI-1; 67.9 µM (inactive) in the assay on SK-MEL-28. The GI50 in the assay with SF-539 is 31.2 µM (inactive); in the assay with TK-10 it was 81.7 µM (inactive); with M14 it was 58.2 µM (inactive); in the assay on NCI-H460, 12.4 µM (inactive); in the assay with SNB-19, 26.4 µM (inactive); with RXF 393, 61.4 µM (inactive). The GI50 in the assay with T47D is > 100 µM (inactive); in the assay on SR it was > 100 µM (inactive); with SNB-75 it was 29.6 µM (inactive); in the assay with MDA-MB-231 it was 61.8 µM (inactive); in the assay on HCT-15, more than 100 µM; in the assay on LOX IMVI, 14.6 µM (inactive). The GI50 with UO-31 was 18.4 µM (inactive).
For the compound `CCOC(=O)C1CCC/C1=N\NC(=N)N.Cc1cc(O)c(C(C)C)cc1S(=O)(=O)O` (stereo not given), the GI50 in the assay with KM12, with OVCAR-8, in the assay with PC-3, in the assay with SN12C, in the assay on SK-MEL-28 and with SF-539 was > 100 µM (inactive) each time. Besides, the GI50 with TK-10, in the assay on M14, in the assay on NCI-H460, with SNB-19, with RXF 393 and in the assay with T47D was > 100 µM (inactive) in each case. For the same compound, the GI50 was > 100 µM (inactive) with SR; > 100 µM (inactive) with SK-MEL-2; 36.2 µM (inactive) in the assay on SNB-75; > 100 µM (inactive) with MDA-MB-231; more than 100 µM in the assay with HCT-15; > 100 µM (inactive) in the assay with LOX IMVI. Moreover, the GI50 in the assay on UO-31 is > 100 µM (inactive).
Take `c1ccc2nc(CCC3CCCCN3)ccc2c1` (stereo not given): the GI50 with KM12, in the assay on OVCAR-8, with PC-3, with SN12C, with CAKI-1 and with SK-MEL-28 was > 100 µM (inactive) in each case. The GI50 in the assay on TK-10 was > 100 µM (inactive); with M14, > 100 µM (inactive); in the assay with NCI-H460, 87.9 µM (inactive); with SNB-19 it was > 100 µM (inactive); in the assay with RXF 393, > 100 µM (inactive); with T47D, 54.5 µM (inactive). Besides, the GI50 with SR is 68.5 µM (inactive); in the assay with SK-MEL-2, > 100 µM (inactive); with SNB-75, 92.3 µM (inactive); in the assay with MDA-MB-231, > 100 µM (inactive); in the assay with HCT-15 it was more than 100 µM; in the assay on LOX IMVI it was > 100 µM (inactive). Also, the GI50 in the assay on UO-31 is 78.3 µM (inactive).
On to `COc1cc2c(cc1OC)C(=O)N(c1ccc(OCCN3CCCC3)cc1)C2=O`, for which the GI50 in the assay on KM12, in the assay with OVCAR-8, with PC-3, in the assay with SN12C, with CAKI-1 and in the assay on SK-MEL-28 was > 100 µM (inactive) in each case. For the same compound, the GI50 with SF-539, with TK-10, in the assay on M14, with NCI-H460, in the assay on SNB-19 and in the assay on RXF 393 was > 100 µM (inactive) in each case. Besides, the GI50 in the assay on T47D was > 100 µM (inactive); in the assay on SR, > 100 µM (inactive); in the assay with SK-MEL-2, > 100 µM (inactive); in the assay on MDA-MB-231 it was > 100 µM (inactive); in the assay with HCT-15, more than 100 µM; in the assay on LOX IMVI, > 100 µM (inactive).
Regarding `CCCCCCCCCCCCc1ccsc1-c1ccc(-c2ccc(-c3sc(-c4cc(CCCCCCCCCCCC)c(-c5ccc(-c6ccc(-c7sccc7CCCCCCCCCCCC)s6)s5)s4)cc3CCCCCCCCCCCC)s2)s1`, the GI50 with KM12, in the assay with OVCAR-8, with PC-3, with SN12C, in the assay on CAKI-1 and in the assay with SK-MEL-28 was > 100 µM (inactive) in each case. The GI50 is > 100 µM (inactive) with SF-539; > 100 µM (inactive) in the assay with TK-10; > 100 µM (inactive) with M14; > 100 µM (inactive) with NCI-H460; > 100 µM (inactive) in the assay with SNB-19; 83.4 µM (inactive) with RXF 393. Also, the GI50 in the assay with T47D is > 100 µM (inactive); in the assay with SR it was 22.8 µM (inactive); with SK-MEL-2, > 100 µM (inactive); with SNB-75, > 100 µM (inactive); in the assay on MDA-MB-231 it was > 100 µM (inactive); with HCT-15 it was more than 100 µM. In the assay on UO-31, the GI50 was > 100 µM (inactive).
Turning to `Cc1sc2nc3n(c(=O)c2c1C)N=CN(c1ccccc1)C3`, the GI50 was > 100 µM (inactive) in the assay with KM12; 68.9 µM (inactive) in the assay with OVCAR-8; > 100 µM (inactive) with PC-3; > 100 µM (inactive) in the assay on SN12C; 36 µM (inactive) with CAKI-1; > 100 µM (inactive) in the assay on SK-MEL-28. Moreover, the GI50 was > 100 µM (inactive) in the assay on TK-10; > 100 µM (inactive) in the assay on M14; > 100 µM (inactive) in the assay with NCI-H460; 35.5 µM (inactive) in the assay on SNB-19; 37.1 µM (inactive) in the assay on RXF 393; 79.8 µM (inactive) in the assay on T47D. The GI50 in the assay with SR is > 100 µM (inactive); in the assay on SK-MEL-2 it was > 100 µM (inactive); with SNB-75 it was 35.9 µM (inactive); with MDA-MB-231, 68.1 µM (inactive); with HCT-15 it was more than 100 µM; in the assay with LOX IMVI it was > 100 µM (inactive). Further, the GI50 in the assay on UO-31 was > 100 µM (inactive).
For the compound `O=C1/C(=C\c2ccc([N+](=O)[O-])cc2)N(S(=O)(=O)c2ccccc2)c2ncccc21`, the GI50 in the assay on KM12 is 20.3 µM (inactive); in the assay with OVCAR-8, 20.9 µM (inactive); in the assay with PC-3 it was 14 µM (inactive); in the assay with SN12C, 16.9 µM (inactive); in the assay with CAKI-1 it was 8.18 µM (inactive); with SK-MEL-28, 20.7 µM (inactive). Moreover, the GI50 was 24.8 µM (inactive) in the assay with SF-539; 17.5 µM (inactive) in the assay with TK-10; 17.4 µM (inactive) in the assay on M14; 18.7 µM (inactive) in the assay on NCI-H460; 24.5 µM (inactive) in the assay with SNB-19; 16.6 µM (inactive) with RXF 393. Also, the GI50 in the assay on T47D is 13.4 µM (inactive); in the assay on SR, 3.33 µM (inactive); in the assay with SNB-75, 14.5 µM (inactive); in the assay on MDA-MB-231 it was 16.1 µM (inactive); in the assay on HCT-15, 15.7 µM; in the assay on LOX IMVI it was 19.5 µM (inactive). Besides, the GI50 with UO-31 is 19.3 µM (inactive).
Turning to `C=CCN1CC2CN=NC2(C#N)C1` (stereo not given), the GI50 with KM12, in the assay with OVCAR-8, in the assay on PC-3, in the assay on SN12C, with CAKI-1 and with SK-MEL-28 was > 100 µM (inactive) each time. For the same compound, the GI50 with TK-10, with NCI-H460, in the assay on SNB-19, in the assay on RXF 393, in the assay with T47D and in the assay with SR was > 100 µM (inactive) in each case. The GI50 in the assay on SK-MEL-2 is > 100 µM (inactive); in the assay with SNB-75, > 100 µM (inactive); with MDA-MB-231 it was > 100 µM (inactive); in the assay on HCT-15, more than 100 µM; with LOX IMVI it was > 100 µM (inactive); with UO-31, > 100 µM (inactive).
On to `COC(=O)c1ccc(/C=C2\Oc3ccccc3C2=O)cc1`, for which the GI50 is > 100 µM (inactive) in the assay on KM12; > 100 µM (inactive) in the assay with OVCAR-8; > 100 µM (inactive) with PC-3; > 100 µM (inactive) in the assay with SN12C; 41.2 µM (inactive) in the assay with CAKI-1; > 100 µM (inactive) with SK-MEL-28. In addition, the GI50 in the assay with SF-539, in the assay on TK-10, with M14, with NCI-H460, with SNB-19 and in the assay with RXF 393 was > 100 µM (inactive) in each case. The GI50 with T47D is > 100 µM (inactive); with SR it was > 100 µM (inactive); in the assay on SNB-75, > 100 µM (inactive); with MDA-MB-231, > 100 µM (inactive); in the assay with HCT-15 it was more than 100 µM; in the assay on UO-31 it was > 100 µM (inactive).
